These results are taken from patent US6586000B2, “Hydroxide-releasing agents as skin permeation enhancers” (Dermatrends, Inc., priority 1999, dated 2003).

The data set can be described thus: In vitro permeation of oxytocin solution through NaOH-pretreated skin, Franz-type diffusion cells. The data set is classed as in vitro ADME, human. As for the experimental part:
The volume of receiver solution was 8 ml. […] Eighteen diffusion cells were used in this study. A 2% NaOH aqueous solution (50 μl) was introduced to the donor chambers of nine cells (cells #1 to 9) and a 4% NaOH aqueous solution (50 μl) was introduced to the donor chambers of the other nine cells (cells #10 to 18). Once the NaOH solution is applied, the donor chamber was covered with parafilm.
After 5 hours, the NaOH solution was washed away from the skin for 3 cells (cells #1 to 3) that were treated with 2% NaOH solution and 3 cells (cells #10 to 12) that were treated with 4% NaOH solution. […] After 24 hours, the NaOH solution was washed away from the skin for 3 cells (cells #7 to 9) that were treated with 2% NaOH solution and 3 cells (cells #16 to 18) that were treated with 4% NaOH solution. To wash away the NaOH solution, the receiving fluid was removed and replaced with fresh DI water. This was done twice. DI water was added to the donor chamber to dilute the NaOH solution and then the donor solution was removed. This was repeated several times.
After the NaOH solution was washed away from the skin, the solution in the donor chamber was completely removed and replaced by 50 μl of an oxytocin solution. Once the oxytocin solution is applied, the donor chamber was covered with parafilm.
The cells were filled with DI water as a receiver solution. The DI water had been degased to remove air bubbles. […] The samples taken were analyzed by HPLC for the concentration of oxytocin in the receiver solution. The cumulative amount of oxytocin across human cadaver skin was calculated using the measured oxytocin concentrations in the receiver solutions for each time point, which were listed in Table 46.
The volume of receiver solution was 8 ml. […] Eighteen diffusion cells were used in this study. A 0.25% NaOH aqueous solution (50 μl) was introduced to the donor chambers of nine cells (cells #1 to 9) and A 1.0% NaOH aqueous solution (50 μl) was introduced to the donor chambers of the other nine cells (cells #10 to 18). Once the NaOH solution is applied, the donor chamber was covered with parafilm.
After 5 hours, the NaOH solution was washed away from the skin for 3 cells (cells #1 to 3) that were treated with […] and 3 cells (cells #10 to 12) that were treated with 1.0% NaOH solution. After 11 hours, the NaOH solution was washed away from the skin for 3 cells (cells #4 to 6) that were treated with 0.25% NaOH solution and 3 cells (cells #13 to 15) that were treated with 1.0% NaOH solution. After 24 hours, the NaOH solution was washed away from the skin for 3 cells (cells #7 to 9) that were treated with 0.25% NaOH solution and 3 cells (cells #16 to 18) that were treated with 1.0% NaOH solution. To wash away the NaOH solution, the receiving fluid was removed and replaced with fresh DI water. This was done twice. DI water was added to the donor chamber to dilute the NaOH solution and then the donor solution was removed. This was repeated several times until the pH of donor solution was less than 8.
The cells were filled with DI water as a receiver solution. The DI water has been degased to remove air bubbles. […] The cumulative amount of oxytocin across human cadaver skin was calculated using the measured oxytocin concentrations in the receiver solutions for each time point, which were listed in Table 48.

Regarding `CC[C@H](C)[C@@H]1NC(=O)[C@H](Cc2ccc(O)cc2)NC(=O)[C@@H](N)CSSC[C@@H](C(=O)N2CCC[C@H]2C(=O)N[C@@H](CC(C)C)C(=O)NCC(N)=O)NC(=O)[C@H](CC(N)=O)NC(=O)[C@H](CCC(N)=O)NC1=O` [Oxytocin, oxytocin], the “Cumulative Amount of Oxytocin Permeated Across Human Cadaver Skin” value (“Cumulative Amount” for short) turned out to be 0.45 μg/cm^2 (skin pretreated by 1.0% NaOH for 5 hr, 4.25 hours); 0.97 μg/cm^2 (skin pretreated by 1.0% NaOH for 5 hr, 24 hours); 0.97 μg/cm^2 (skin pretreated by 1.0% NaOH for 5 hr, […]); 53.42 μg/cm^2 (skin pretreated by 1.0% NaOH for 11 hr, 4.25 hours); 75.36 μg/cm^2 (skin pretreated by 1.0% NaOH for 11 hr, 24 hours); 67.97 μg/cm^2 (skin pretreated by 1.0% NaOH for 11 hr, […]). Moreover, the “Cumulative Amount” value (skin pretreated by 1.0% NaOH for 24 hr, 4.25 hours) is recorded as 13.23 μg/cm^2; the “Cumulative Amount” value (skin pretreated by 1.0% NaOH for 24 hr, 24 hours) was 30.97 μg/cm^2; the “Cumulative Amount” value (skin pretreated by 1.0% NaOH for 24 hr, […]) came out at 21.06 μg/cm^2; the “Cumulative Amount” value (skin pretreated by 4% NaOH for 5 hr, 5 hours) is reported as 118.95 μg/cm^2; the “Cumulative Amount” value (skin pretreated by 4% NaOH for 5 hr, 15 hours) is on record as 200.66 μg/cm^2; the “Cumulative Amount” value (skin pretreated by 4% NaOH for 5 hr, 24 hours) is listed as 225.52 μg/cm^2. The “Cumulative Amount” value is, setting by setting: (skin pretreated by 4% NaOH for 15 hr, 5 hours) 202.28 μg/cm^2; (skin pretreated by 4% NaOH for 15 hr, 15 hours) 222.45 μg/cm^2; (skin pretreated by 4% NaOH for 15 hr, 24 hours) 231.58 μg/cm^2; (skin pretreated by 4% NaOH for 24 hr, 5 hours) 193.82 μg/cm^2; (skin pretreated by 4% NaOH for 24 hr, 15 hours) 232.72 μg/cm^2; (skin pretreated by 4% NaOH for 24 hr, 24 hours) 236.80 μg/cm^2.
